Experimental data reported in PubChem BioAssay (NCI).
“And” between values parts separate entries of the source, which are not always exact repeats. Equal entries are not always repeated.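 All cell lines were grown in 96-well plates and treated with compound for 48 hours. The concentration for 50% growth inhibition is given as GI50. TGI: concentration producing complete growth inhibition.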

Assays:
Experiment in all cases: NCI tumour cell line growth inhibition, 48 h
KM12 colon = test system: KM12 colon
RPMI-8226 leukemia = test system: RPMI-8226 leukemia
U251 CNS = test system: U251 CNS
TK-10 renal = test system: TK-10 renal
HCC-2998 colon = test system: HCC-2998 colon
OVCAR-5 ovarian = test system: OVCAR-5 ovarian
HOP-92 NSCLC = test system: HOP-92 NSCLC
HS 578T breast = test system: HS 578T breast
DU-145 prostate = test system: DU-145 prostate
SK-MEL-5 melanoma = test system: SK-MEL-5 melanoma
HCT-15 colon = test system: HCT-15 colon
SK-MEL-2 melanoma = test system: SK-MEL-2 melanoma
MDA-N = test system: MDA-N
HCT-116 colon = test system: HCT-116 colon
CAKI-1 renal = test system: CAKI-1 renal
LOX IMVI melanoma = test system: LOX IMVI melanoma
NCI-H226 lung = test system: NCI-H226 lung
CCRF-CEM leukemia = test system: CCRF-CEM leukemia
UACC-257 melanoma = test system: UACC-257 melanoma
IGROV1 ovarian = test system: IGROV1 ovarian
MCF7 breast = test system: MCF7 breast
SR leukemia = test system: SR leukemia
PC-3 prostate = test system: PC-3 prostate
HT29 colon = test system: HT29 colon
HL-60(TB) leukemia = test system: HL-60(TB) leukemia
UO-31 renal = test system: UO-31 renal
786-0 renal = test system: 786-0 renal
MDA-MB-435 = test system: MDA-MB-435
SF-268 CNS = test system: SF-268 CNS
OVCAR-4 ovarian = test system: OVCAR-4 ovarian

With `CC1=C2O[C@]3(O)C=C2C(=C(O)C1=O)[C@@H]1O[C@H](CC[C@H](C)/C=C(\C)C[C@@H](C)C[C@@H]3C)[C@H](C)[C@H](O)[C@H]1C` the TGI (KM12 colon) was 1750 nM and 1270 nM, the TGI (RPMI-8226 leukemia) was 378 nM and 582 nM and the GI50 (U251 CNS) was 288 nM. The TGI (U251 CNS) was 1160 nM and 752 nM, the GI50 (TK-10 renal) was 336 nM and the TGI (TK-10 renal) was 372 nM and 1160 nM. For the same molecule, the GI50 (HCC-2998 colon) was 330 nM, the TGI (HCC-2998 colon) was 384 nM and 1160 nM and the GI50 (OVCAR-5 ovarian) was 767 nM. For the same molecule, the TGI (OVCAR-5 ovarian) was 3190 nM and 2080 nM, the GI50 (HOP-92 NSCLC) was 177 nM and the TGI (HOP-92 NSCLC) was 273 nM and 377 nM. The TGI (HS 578T breast) was 1490 nM, the TGI (DU-145 prostate) was 1030 nM and 659 nM and the GI50 (SK-MEL-5 melanoma) was 777 nM. The TGI (SK-MEL-5 melanoma) was 1660 nM and 1710 nM, the GI50 (HCT-15 colon) was 180 nM and the TGI (HCT-15 colon) was 289 nM and 406 nM. For the same molecule, the GI50 (SK-MEL-2 melanoma) was 282 nM, the TGI (SK-MEL-2 melanoma) was 851 nM and 703 nM and the GI50 (MDA-N) was 204 nM. The TGI (MDA-N) was 398 nM and 446 nM, the GI50 (HCT-116 colon) was 201 nM and the TGI (HCT-116 colon) was 486 nM and 436 nM. The GI50 (CAKI-1 renal) was 295 nM, the TGI (CAKI-1 renal) was 1660 nM and 780 nM and the GI50 (LOX IMVI melanoma) was 274 nM. The TGI (LOX IMVI melanoma) was 793 nM and 739 nM, the GI50 (NCI-H226 lung) was 935 nM and the TGI (NCI-H226 lung) was 2120 nM and 2390 nM. For the same molecule, the GI50 (CCRF-CEM leukemia) was 33.9 nM, the TGI (CCRF-CEM leukemia) was 296 nM and the GI50 (UACC-257 melanoma) was 412 nM. For the same molecule, the TGI (UACC-257 melanoma) was 860 nM and 2340 nM, the GI50 (IGROV1 ovarian) was 272 nM and the TGI (IGROV1 ovarian) was 324 nM and 664 nM. The TGI (MCF7 breast) was 556 nM and 395 nM, the TGI (SR leukemia) was 4180 nM and the TGI (PC-3 prostate) was 1050 nM and 637 nM. For the same molecule, the GI50 (HT29 colon) was 216 nM, the TGI (HT29 colon) was 529 nM and 504 nM and the GI50 (HL-60(TB) leukemia) was 203 nM. The TGI (HL-60(TB) leukemia) was 617 nM, the GI50 (UO-31 renal) was 232 nM and the TGI (UO-31 renal) was 548 nM and 654 nM. For the same molecule, the GI50 (786-0 renal) was 180 nM, the TGI (786-0 renal) was 324 nM and 342 nM and the GI50 (MDA-MB-435) was 199 nM. For the same molecule, the TGI (MDA-MB-435) was 325 nM and 429 nM, the GI50 (SF-268 CNS) was 303 nM and the TGI (SF-268 CNS) was 1140 nM and 892 nM. The GI50 (OVCAR-4 ovarian) was 229 nM and the TGI (OVCAR-4 ovarian) was 560 nM and 637 nM.
